Measured values reported in ChEMBL document CHEMBL4311939, “Design and evaluation of novel tetracyclic benzofurans as palm site allosteric inhibitors of HCV NS5B polymerase” (Bioorg Med Chem Lett, 2019).
Converted amounts (≈) assume the structure as drawn.

What was measured:
[1] = Oral bioavailability in rat at 5 mg/kg; assay type: ADME, organism-based; settings: in vivo
[2] = Cmax in rat at 100 mg/kg, po using spray dry sample; assay type: ADME, organism-based; set-up: dose 100 mg/kg, route oral; settings: in vivo
[3] = Half life in monkey at 1 mg/kg, iv; assay type: ADME, organism-based, Macaca mulatta; settings: rhesus monkey, in vivo
[4] = Cmax in dog at 2 mg/kg, po; assay type: ADME, organism-based, Canis lupus familiaris; set-up: dose 2 mg/kg, route oral; settings: in vivo
[5] = Cmax in rat at 10 mg/kg, po using spray dry sample; assay type: ADME, organism-based; set-up: dose 10 mg/kg, route oral; settings: in vivo
[6] = Clearance in dog at 0.5 mg/kg, iv; assay type: ADME, organism-based, Canis lupus familiaris; settings: in vivo
[7] = biological target: T1, Nuclear receptor subfamily 1 group I member 2 (Homo sapiens, UniProt O75469); assay: Transactivation of PXR (unknown origin); assay type: ADME
T1 sequence (O75469 whole entry): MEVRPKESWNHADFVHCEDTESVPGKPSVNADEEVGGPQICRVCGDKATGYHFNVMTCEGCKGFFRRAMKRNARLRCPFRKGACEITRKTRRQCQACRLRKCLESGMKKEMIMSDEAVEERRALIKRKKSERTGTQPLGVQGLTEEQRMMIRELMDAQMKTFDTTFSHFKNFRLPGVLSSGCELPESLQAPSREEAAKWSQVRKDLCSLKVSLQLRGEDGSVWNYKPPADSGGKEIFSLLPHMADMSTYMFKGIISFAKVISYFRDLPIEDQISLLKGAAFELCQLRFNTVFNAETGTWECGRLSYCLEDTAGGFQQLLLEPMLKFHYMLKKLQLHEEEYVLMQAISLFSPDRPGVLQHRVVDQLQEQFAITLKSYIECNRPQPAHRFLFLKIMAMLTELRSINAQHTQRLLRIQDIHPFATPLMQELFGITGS

[8] = Drug concentration in dog plasma at 2 mg/kg, po after 24 hrs; assay type: ADME, organism-based, Canis lupus familiaris
[9] = Oral bioavailability in dog at 2 mg/kg; assay type: ADME, organism-based, Canis lupus familiaris; settings: in vivo
[10] = AUC in monkey at 3 mg/kg, po; assay type: ADME, organism-based, Macaca mulatta; settings: rhesus monkey, in vivo
[11] = Apparent permeability in dog MDCK cells; assay type: ADME, cell-based, Canis lupus familiaris
[12] = biological target: Voltage-dependent L-type calcium channel subunit alpha-1C (Homo sapiens, UniProt Q13936); assay: Inhibition of Cav1.2 (unknown origin)
[13] = Half life in rat at 1 mg/kg, iv; assay type: ADME, organism-based; settings: in vivo
[14] = biological target: Voltage-gated inwardly rectifying potassium channel KCNH2 (Homo sapiens, UniProt Q12809); assay: Inhibition of human ERG by patch clamp assay
[15] = Half life in dog at 0.5 mg/kg, iv; assay type: ADME, organism-based, Canis lupus familiaris; settings: in vivo
[16] = Clearance in monkey at 1 mg/kg, iv; assay type: ADME, organism-based, Macaca mulatta; settings: rhesus monkey, in vivo
[17] = AUC in rat at 650 mg/kg, po using spray dry sample; assay type: ADME, organism-based; settings: in vivo
[18] = AUC in rat at 5 mg/kg, po; assay type: ADME, organism-based; settings: in vivo
[19] = Drug concentration in rat plasma at 5 mg/kg, po after 24 hrs; assay type: ADME, organism-based
[20] = Tmax in rat at 5 mg/kg, po; assay type: ADME, organism-based; settings: in vivo
[21] = Cmax in monkey at 3 mg/kg, po; assay type: ADME, organism-based, Macaca mulatta; set-up: dose 3 mg/kg, route oral; settings: rhesus monkey, in vivo
[22] = Cmax in rat at 650 mg/kg, po using spray dry sample; assay type: ADME, organism-based; set-up: dose 650 mg/kg, route oral; settings: in vivo
[23] = biological target: Sodium channel protein type 5 subunit alpha (Homo sapiens, UniProt Q14524); assay: Inhibition of Nav1.5 (unknown origin)
[24] = Drug concentration in monkey plasma at 3 mg/kg, po after 24 hrs; assay type: ADME, organism-based, Macaca mulatta; settings: rhesus monkey
[25] = Solubility of the compound in FaSSIF using crystalline sample; assay type: physicochemical
[26] = biological target: Cytochrome P450 3A4 (Homo sapiens, UniProt P08684); assay: Inhibition of CYP3A4 (unknown origin); assay type: ADME
[27] = AUC in rat at 100 mg/kg, po using spray dry sample; assay type: ADME, organism-based; settings: in vivo
[28] = AUC in dog at 2 mg/kg, po; assay type: ADME, organism-based, Canis lupus familiaris; settings: in vivo
[29] = Cmax in rat at 5 mg/kg, po; assay type: ADME, organism-based; set-up: dose 5 mg/kg, route oral; settings: in vivo
[30] = AUC in rat at 10 mg/kg, po using spray dry sample; assay type: ADME, organism-based; settings: in vivo
[31] = Clearance in rat at 1 mg/kg, iv; assay type: ADME, organism-based; settings: in vivo
[32] = Oral bioavailability in monkey at 3 mg/kg; assay type: ADME, organism-based, Macaca mulatta; settings: rhesus monkey, in vivo
[33] = Drug metabolism in solvent assessed as oxidation by measuring cpd 1 formation under air exposure
[34] = AUC in rat at 100 mg/kg, po using conventional sample; assay type: ADME, organism-based; settings: in vivo
[35] = Cmax in rat at 300 mg/kg, po using spray dry sample; assay type: ADME, organism-based; set-up: dose 300 mg/kg, route oral; settings: in vivo
[36] = AUC in rat at 300 mg/kg, po using spray dry sample; assay type: ADME, organism-based; settings: in vivo

Cytochrome P450 3A4, sequence (P08684 whole entry): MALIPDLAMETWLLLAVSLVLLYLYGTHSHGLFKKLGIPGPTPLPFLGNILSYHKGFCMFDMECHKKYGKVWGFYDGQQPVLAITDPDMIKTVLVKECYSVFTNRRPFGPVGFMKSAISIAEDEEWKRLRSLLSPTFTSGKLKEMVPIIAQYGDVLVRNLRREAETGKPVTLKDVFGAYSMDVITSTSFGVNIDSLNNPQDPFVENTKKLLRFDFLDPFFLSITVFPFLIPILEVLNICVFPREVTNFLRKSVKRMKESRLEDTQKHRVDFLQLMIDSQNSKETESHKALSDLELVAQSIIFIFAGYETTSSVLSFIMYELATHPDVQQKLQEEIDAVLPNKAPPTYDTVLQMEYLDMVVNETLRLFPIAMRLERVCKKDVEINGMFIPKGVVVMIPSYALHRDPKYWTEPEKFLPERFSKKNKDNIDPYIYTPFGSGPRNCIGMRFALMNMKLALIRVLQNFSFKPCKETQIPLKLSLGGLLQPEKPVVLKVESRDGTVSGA
Voltage-gated inwardly rectifying potassium channel KCNH2, sequence (Q12809 whole entry): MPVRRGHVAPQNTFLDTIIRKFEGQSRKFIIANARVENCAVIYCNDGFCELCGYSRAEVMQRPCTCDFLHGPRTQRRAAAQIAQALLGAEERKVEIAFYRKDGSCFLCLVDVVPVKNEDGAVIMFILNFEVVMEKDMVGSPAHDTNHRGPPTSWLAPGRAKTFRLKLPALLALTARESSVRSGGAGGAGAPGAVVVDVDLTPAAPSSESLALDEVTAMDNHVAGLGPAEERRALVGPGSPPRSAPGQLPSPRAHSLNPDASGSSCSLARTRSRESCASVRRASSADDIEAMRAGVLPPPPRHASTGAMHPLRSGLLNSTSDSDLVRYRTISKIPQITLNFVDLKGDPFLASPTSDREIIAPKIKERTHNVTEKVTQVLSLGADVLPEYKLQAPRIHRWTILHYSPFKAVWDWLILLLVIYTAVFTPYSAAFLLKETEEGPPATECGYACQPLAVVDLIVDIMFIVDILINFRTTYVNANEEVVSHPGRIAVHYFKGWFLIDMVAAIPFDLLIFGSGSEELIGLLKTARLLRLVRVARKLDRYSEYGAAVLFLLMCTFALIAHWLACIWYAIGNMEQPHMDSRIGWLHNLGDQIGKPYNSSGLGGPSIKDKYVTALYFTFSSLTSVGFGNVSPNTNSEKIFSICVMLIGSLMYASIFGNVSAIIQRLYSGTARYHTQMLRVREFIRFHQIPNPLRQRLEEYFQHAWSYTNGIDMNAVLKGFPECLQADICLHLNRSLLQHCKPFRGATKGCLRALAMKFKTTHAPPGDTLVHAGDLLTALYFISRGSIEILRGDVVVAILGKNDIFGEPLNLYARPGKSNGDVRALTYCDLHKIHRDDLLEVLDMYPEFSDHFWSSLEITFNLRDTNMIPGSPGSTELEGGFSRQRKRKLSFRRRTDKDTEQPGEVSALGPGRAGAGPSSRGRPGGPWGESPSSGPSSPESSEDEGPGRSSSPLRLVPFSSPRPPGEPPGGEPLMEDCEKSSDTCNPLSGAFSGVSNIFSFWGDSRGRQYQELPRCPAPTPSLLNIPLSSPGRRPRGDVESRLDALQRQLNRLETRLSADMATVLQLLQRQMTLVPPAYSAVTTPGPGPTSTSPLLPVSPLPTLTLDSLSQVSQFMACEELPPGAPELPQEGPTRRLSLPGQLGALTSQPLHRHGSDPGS
Sodium channel protein type 5 subunit alpha, sequence (Q14524 whole entry): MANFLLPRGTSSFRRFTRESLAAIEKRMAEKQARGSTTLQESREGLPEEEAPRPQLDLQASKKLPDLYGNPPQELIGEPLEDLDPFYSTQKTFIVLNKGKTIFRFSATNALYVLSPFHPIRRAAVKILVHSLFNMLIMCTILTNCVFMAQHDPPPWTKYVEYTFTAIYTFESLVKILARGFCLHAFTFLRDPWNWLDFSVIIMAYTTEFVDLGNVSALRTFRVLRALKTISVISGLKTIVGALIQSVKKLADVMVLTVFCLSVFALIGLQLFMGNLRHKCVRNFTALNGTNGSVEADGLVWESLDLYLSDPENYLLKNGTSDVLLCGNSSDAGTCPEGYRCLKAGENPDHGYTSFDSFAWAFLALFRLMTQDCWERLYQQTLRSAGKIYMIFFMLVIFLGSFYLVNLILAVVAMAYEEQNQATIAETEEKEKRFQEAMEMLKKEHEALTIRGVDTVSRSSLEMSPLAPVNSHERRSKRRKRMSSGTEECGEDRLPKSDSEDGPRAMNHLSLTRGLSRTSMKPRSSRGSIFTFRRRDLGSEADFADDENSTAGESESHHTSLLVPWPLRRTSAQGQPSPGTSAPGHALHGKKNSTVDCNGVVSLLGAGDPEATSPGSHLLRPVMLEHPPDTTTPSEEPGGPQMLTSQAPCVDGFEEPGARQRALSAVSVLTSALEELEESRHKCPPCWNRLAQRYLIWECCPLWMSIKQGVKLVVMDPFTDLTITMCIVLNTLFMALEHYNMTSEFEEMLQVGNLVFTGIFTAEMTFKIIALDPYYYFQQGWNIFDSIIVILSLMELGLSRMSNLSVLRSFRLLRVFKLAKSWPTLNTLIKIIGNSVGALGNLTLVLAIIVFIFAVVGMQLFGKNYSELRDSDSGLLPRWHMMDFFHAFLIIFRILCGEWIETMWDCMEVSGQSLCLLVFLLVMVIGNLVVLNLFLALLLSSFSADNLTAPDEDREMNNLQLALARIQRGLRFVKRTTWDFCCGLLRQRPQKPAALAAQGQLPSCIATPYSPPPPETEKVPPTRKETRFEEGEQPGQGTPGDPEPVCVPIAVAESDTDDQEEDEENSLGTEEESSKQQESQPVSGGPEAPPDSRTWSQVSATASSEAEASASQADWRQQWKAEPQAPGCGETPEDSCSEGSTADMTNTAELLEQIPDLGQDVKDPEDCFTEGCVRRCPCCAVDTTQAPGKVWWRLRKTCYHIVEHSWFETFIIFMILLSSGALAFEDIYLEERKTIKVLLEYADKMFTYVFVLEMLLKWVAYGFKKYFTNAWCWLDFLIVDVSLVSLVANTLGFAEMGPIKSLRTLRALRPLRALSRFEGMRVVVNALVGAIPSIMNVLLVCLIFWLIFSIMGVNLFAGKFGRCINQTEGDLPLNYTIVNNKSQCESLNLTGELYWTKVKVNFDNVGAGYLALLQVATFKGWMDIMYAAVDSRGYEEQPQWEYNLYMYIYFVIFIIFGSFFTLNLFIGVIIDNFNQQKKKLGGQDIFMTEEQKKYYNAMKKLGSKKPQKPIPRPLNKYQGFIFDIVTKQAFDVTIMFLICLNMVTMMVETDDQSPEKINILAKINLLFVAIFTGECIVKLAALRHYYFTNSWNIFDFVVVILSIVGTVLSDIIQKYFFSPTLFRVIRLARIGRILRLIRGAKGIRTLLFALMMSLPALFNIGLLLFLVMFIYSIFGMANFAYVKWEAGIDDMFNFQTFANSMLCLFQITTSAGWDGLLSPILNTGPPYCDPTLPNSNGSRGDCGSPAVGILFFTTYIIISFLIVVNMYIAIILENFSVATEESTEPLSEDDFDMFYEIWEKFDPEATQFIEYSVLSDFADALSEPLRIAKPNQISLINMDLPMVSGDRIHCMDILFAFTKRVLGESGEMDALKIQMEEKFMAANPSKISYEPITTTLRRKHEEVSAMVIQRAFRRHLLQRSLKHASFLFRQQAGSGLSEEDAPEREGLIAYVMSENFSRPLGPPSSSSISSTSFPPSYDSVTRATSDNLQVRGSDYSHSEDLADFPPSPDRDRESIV

Row | bioavailability [1] | half-life [3] | Cmax [4] | clearance [6] | EC50 [7] | concentration at 24 h [8] | bioavailability [9] | AUC [10] | Papp [11] | half-life [13] | half-life [15] | clearance [16] | AUC [18] | concentration at 24 h [19] | Cmax [21] | Cmax [29] | clearance [31] | SMILES | IC50 [12] | IC50 [14] | IC50 [23] | further results
1 | 18% | 5.9 h | 1300 nM | 2.9 mL/min/kg | > 30 µM | 76 nM | 54% | 1.7 µM·h | 14.2 ×10⁻⁶ cm/s | 12 h | 13 h | 11 mL/min/kg | 8.8 µM·h | 69 nM | 320 nM | 950 nM | 2.3 mL/min/kg | CNC(=O)c1c(-c2ccc(F)cc2)oc2cc(N(C)S(C)(=O)=O)c(-c3ccc4c(n3)-c3cc5c(F)cccc5n3CC4)cc12 | 18 µM | > 30 µM | > 30 µM | Cmax [2]: 8200 nM; Cmax [5]: 4300 nM; AUC [17]: 181 µM·h; Tmax [20]: 4 h; Cmax [22]: 11000 nM; concentration at 24 h [24]: 6.3 nM; solubility thermodynamic [25]: 4.7 µg/mL (≈ 7.67 µM); IC50 [26]: > 50 µM; AUC [27]: 100 µM·h; AUC [28]: 9.2 µM·h; AUC [30]: 37 µM·h; bioavailability [32]: 22%
2 | 26% | 6.6 h | 1000 nM | 2.6 mL/min/kg | > 30 µM | 140 nM | 43% | 3.5 µM·h | < 1.9 ×10⁻⁶ cm/s | 16 h | 22 h | 5.6 mL/min/kg | 7.9 µM·h | 114 nM | 370 nM | 450 nM | 4.2 mL/min/kg | CNC(=O)c1c(-c2ccc(F)cc2)oc2cc(N(C)S(C)(=O)=O)c(-c3ccc4ccn5c6cccc(F)c6cc5c4n3)cc12 | 18 µM | > 30 µM | > 30 µM | concentration at 24 h [24]: 31 nM; solubility thermodynamic [25]: 2.9 µg/mL (≈ 4.75 µM); IC50 [26]: > 50 µM; AUC [28]: 6.3 µM·h; bioavailability [32]: 24%
3 | 4% |  |  |  |  |  |  |  |  | 9.6 h |  |  | 1.1 µM·h | 10 nM |  | 120 nM | 5.2 mL/min/kg | CNC(=O)c1c(-c2ccc(F)cc2)oc2cc(N(C)S(C)(=O)=O)c(-c3ccc4c(n3)-c3cc5c(F)cccc5n3C4)cc12 |  |  |  | Tmax [20]: 3 h
4 | 16% | 3.9 h | 410 nM | 7.9 mL/min/kg | > 30 µM | 11 nM | 30% | 1 µM·h | 8.9 ×10⁻⁶ cm/s | 3.8 h | 4 h | 7.7 mL/min/kg | 1.4 µM·h | 2.2 nM | 130 nM | 350 nM | 16 mL/min/kg | CNC(=O)c1c(-c2ccc(F)cc2)oc2cc(N(C)S(C)(=O)=O)c(-c3ccc4c(n3)-c3cc5c(F)cccc5n3CN4)cc12 | > 30 µM | > 30 µM | > 30 µM | Drug metabolism [33]: Metabolite detected; concentration at 24 h [24]: 4 nM; IC50 [26]: > 50 µM; AUC [28]: 2.3 µM·h; bioavailability [32]: 9.3%
5 | 1% |  |  |  |  |  |  |  |  | 4.3 h |  |  | 0.078 µM·h |  |  | 190 nM | 17 mL/min/kg | CNC(=O)c1c(-c2ccc(F)cc2)oc2cc(N(C)S(C)(=O)=O)c(-c3cc4n(c(=O)c3)CCn3c-4cc4c(F)cccc43)cc12 |  |  |  | Tmax [20]: 1 h
6 |  |  |  |  |  |  |  |  | 7.9 ×10⁻⁶ cm/s |  |  |  |  |  |  |  |  | CNC(=O)c1c(-c2ccc(F)cc2)oc2cc(N(C)S(C)(=O)=O)c(-c3ccc4c(n3)-c3cc5c(F)cccc5n3CO4)cc12 [MK-8876] |  |  |  | Cmax [2]: 6700 nM; Cmax [5]: 1500 nM; AUC [17]: 226 µM·h; Cmax [22]: 12000 nM; AUC [27]: 83 µM·h; AUC [30]: 16 µM·h
7 | 36% | 6.1 h | 840 nM | 3.2 mL/min/kg | > 30 µM | 130 nM | 64% | 3.4 µM·h | 10.2 ×10⁻⁶ cm/s | 8.4 h | 17 h | 4.7 mL/min/kg | 5.2 µM·h | 110 nM | 660 nM | 580 nM | 8.5 mL/min/kg | CNC(=O)c1c(-c2ccc(F)cc2)oc2cc(N(C)S(C)(=O)=O)c(-c3ccc4ncn5c6cccc(F)c6cc5c4n3)cc12 | 22 µM | > 30 µM | > 30 µM | Cmax [2]: 8500 nM; Cmax [5]: 2700 nM; AUC [34]: 0.67 µM·h; Cmax [35]: 5600 nM; concentration at 24 h [24]: 10 nM; solubility thermodynamic [25]: 1.02 µg/mL (≈ 1.67 µM); AUC [36]: 181 µM·h; IC50 [26]: > 50 µM; AUC [27]: 136 µM·h; AUC [28]: 9.4 µM·h; AUC [30]: 32 µM·h; bioavailability [32]: 20%
